Kd data for four molecules are collected here from PMC4655838, “Versatility in phospho-dependent molecular recognition of the XRCC1 and XRCC4 DNA-damage scaffolds by aprataxin-family FHA domains” (DNA Repair, 2015).

A word on the Kd: it is the equilibrium constant for the complex coming apart. Higher therefore signals a looser complex.

Format in all cases: binding
Assay [1] concerns the target T1, wild-type aprataxin FHA domain (Homo sapiens, UniProt Q7Z2E3).
T1 construct: aprataxin residues 1–105; GST (pGEX-6P-1) (N, cleaved yes); made in house; host or cells: Escherichia coli BL21 (DE3)
The assay can be described thus: ITC of wild-type aprataxin FHA domain with XRCC1 and XRCC4 phosphopeptides. The following applies: 22 °C, 50 mM HEPES pH 7.5, 150 mM NaCl, 5 mM β-mercaptoethanol, peptide in syringe, XRCC1 peptides 1 mM into 100 μM protein, XRCC4 peptides 300 μM into 30 μM protein, single-site model, representative of triplicate. The text has this: (§1) The genes for aprataxin residues 1–105 and APLF residues 1–106 were amplified using primer sets which incorporated 5′ BamHI and 3′ XhoI sites. PCR products and pGEX-6P-1 vector were digested with BamHI and XhoI and religated. All point mutations were generated using a QuickChange Site-Directed Mutagenesis Kit (Stratagene) following the manufacturer's recommended protocol.
(§2) For expression, the pGEX-6P-1/aprataxin-FHA constructs were transformed into Escherichia coli strain BL21 (DE3) and the pGEX-6P-1/APLF-FHA constructs transformed into the strain Rosetta2 (DE3). Cells were grown in LB at 37 °C to an A600 of 0.5, induced with 0.4 mM isopropyl 1-thio-β-D-galactopyranoside and incubated at 18 °C for a further 16 h before harvesting. Cells were lysed by sonication and clarified by centrifugation (20,000 × g × 30 min). The supernatant was applied to a glutathione-4B resin (Amersham) and cleaved from the resin with rhinovirus 3C protease. Proteins were purified further by gel-filtration chromatography on a Superdex 75 matrix in 20 mM Tris pH 7.5, 150 mM NaCl, 5 mM DTT. Selenomethionine-labelled APLF L91 M protein was expressed in Rosetta2 (DE3) cells cultured in SelenoMet base media and nutrients supplemented with seleno-methionine solution (Molecular Dimensions Ltd.) and purified as the wild-type protein.
(§3) Phosphopeptides based on the XRCC1 sequence 515-YAGSTDENTDSEEHQ-529 and the XRCC4 sequence 229-YDESTDEES-237 were synthesised with amidated C-termini to avoid potential end-effects of a free carboxy-terminus by Dr. W. Mawby (University of Bristol), purified by HPLC and characterised by mass spectrometry. FHA-phosphopeptide binding was quantified by isothermal titration calorimetry using a Microcal Omega VP-ITC calorimeter (MicroCal Inc., Northampton, MA). Protein was dialysed against ITC buffer (50 mM HEPES pH 7.5, 150 mM NaCl, 5 mM β-mercaptoethanol) and peptides were dissolved in the dialysis buffer. Experiments were carried out at 22 °C and involved 30 successive 10 μl injections of peptide solution into a sample cell containing protein solution. Titrations with XRCC1 peptides used peptide at 1 mM and protein at 100 μM and titrations with XRCC4 peptides used peptide at 300 μm and protein at 30 μM. Heats of dilution were subtracted and binding isotherms were plotted and analysed with MicroCal origin version 7.0, assuming a single-site binding model.

Assay [2] addresses T2, wild-type APLF FHA domain (Homo sapiens, UniProt Q8IW19).
T2 construct: APLF residues 1–106; GST (pGEX-6P-1) (N, cleaved yes); made in house; host or cells: Escherichia coli Rosetta2 (DE3)
T2 sequence (Q8IW19 1-106): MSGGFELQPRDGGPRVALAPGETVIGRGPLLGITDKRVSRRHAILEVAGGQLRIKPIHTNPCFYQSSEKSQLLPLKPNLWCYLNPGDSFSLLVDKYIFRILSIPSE
The experiment in a line: ITC of wild-type APLF FHA domain with XRCC1 and XRCC4 phosphopeptides. As to conditions: 22 °C, 50 mM HEPES pH 7.5, 150 mM NaCl, 5 mM β-mercaptoethanol, peptide in syringe, XRCC1 peptides 1 mM into 100 μM protein, XRCC4 peptides 300 μM into 30 μM protein, single-site model, representative of triplicate.
Text: as §1
For expression, the pGEX-6P-1/aprataxin-FHA constructs were transformed into Escherichia coli strain BL21 (DE3) and the pGEX-6P-1/APLF-FHA constructs transformed into the strain Rosetta2 (DE3). Cells were grown in LB at 37 °C to an A600 of 0.5, induced with 0.4 mM isopropyl 1-thio-β-D-galactopyranoside and incubated at 18 °C for a further 16 h before harvesting. […]
Phosphopeptides based on the XRCC1 sequence 515-YAGSTDENTDSEEHQ-529 and the XRCC4 sequence 229-YDESTDEES-237 were synthesised with amidated C-termini to avoid potential end-effects of a free carboxy-terminus by Dr. W. Mawby (University of Bristol), purified by HPLC and characterised by mass spectrometry. FHA-phosphopeptide binding was quantified by isothermal titration calorimetry using a Microcal Omega VP-ITC calorimeter (MicroCal Inc., Northampton, MA). […] Heats of dilution were subtracted and binding isotherms were plotted and analysed with MicroCal origin version 7.0, assuming a single-site binding model.

Assay [3] concerns the target T3, R42A Mutant of aprataxin FHA domain (Homo sapiens, UniProt Q7Z2E3, R56A).
T3 construct: aprataxin residues 1–105; GST (pGEX-6P-1) (N, cleaved yes); made in house; host or cells: Escherichia coli BL21 (DE3)
The assay can be described thus: ITC of R42A mutant of aprataxin FHA domain with XRCC1 and XRCC4 phosphopeptides. The following applies: 22 °C, 50 mM HEPES pH 7.5, 150 mM NaCl, 5 mM β-mercaptoethanol, single-site model.
Text: as §1, §2, §3

The target of assay [4] is T4, K38A Mutant of aprataxin FHA domain (Homo sapiens, UniProt Q7Z2E3, K52A).
T4 construct: aprataxin residues 1–105; GST (pGEX-6P-1) (N, cleaved yes); made in house; host or cells: Escherichia coli BL21 (DE3)
The experiment in a line: ITC of K38A mutant of aprataxin FHA domain with XRCC1 and XRCC4 phosphopeptides. The following applies: 22 °C, 50 mM HEPES pH 7.5, 150 mM NaCl, 5 mM β-mercaptoethanol, single-site model.
Text: as §1, §2, §3

SMILES strings stand for the structures. Square brackets hold non-standard residues; d marks the D form. Peptide text beside a SMILES is read from it. pT = C[C@@H](OP(=O)(O)O)[C@H](N)C(=O)O; pS = N[C@@H](COP(=O)(O)O)C(=O)O

T1 sequence (Q7Z2E3 15-119): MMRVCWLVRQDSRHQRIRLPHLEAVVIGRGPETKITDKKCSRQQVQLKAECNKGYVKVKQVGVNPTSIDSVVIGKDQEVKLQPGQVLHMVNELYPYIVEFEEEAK
T4 sequence (Q7Z2E3 15-119 K52A): as the sequence (Q7Z2E3 15-119) above, with K38A counted along it
T3 sequence (Q7Z2E3 15-119 R56A): as the sequence (Q7Z2E3 15-119) above, with R42A counted along it

In the case of `C[C@H](NC(=O)[C@@H](N)Cc1ccc(O)cc1)C(=O)NCC(=O)N[C@@H](COP(=O)(O)O)C(=O)N[C@H](C(=O)N[C@@H](CC(=O)O)C(=O)N[C@@H](CCC(=O)O)C(=O)N[C@@H](CC(N)=O)C(=O)N[C@H](C(=O)N[C@@H](CC(=O)O)C(=O)N[C@@H](COP(=O)(O)O)C(=O)N[C@@H](CCC(=O)O)C(=O)N[C@@H](CCC(=O)O)C(=O)N[C@@H](Cc1c[nH]cn1)C(=O)N[C@@H](CCC(N)=O)C(N)=O)[C@@H](C)OP(=O)(O)O)[C@@H](C)OP(=O)(O)O` [YAGpSpTDENpTDpSEEHQ] (H-YAG[pS][pT]DEN[pT]D[pS]EEHQ-NH2), the Kd came out at 870 ± 50 nM in assay [1] and 11000 ± 300 nM in assay [2].
Regarding `C[C@@H](OP(=O)(O)O)[C@H](NC(=O)[C@H](CO)NC(=O)[C@H](CCC(=O)O)NC(=O)[C@H](CC(=O)O)NC(=O)[C@@H](N)Cc1ccc(O)cc1)C(=O)N[C@@H](CC(=O)O)C(=O)N[C@@H](CCC(=O)O)C(=O)N[C@@H](CCC(=O)O)C(=O)N[C@@H](CO)C(N)=O` [YDESpTDEES] (HELM PEPTIDE1{Y.D.E.S.[C[C@@H](OP(=O)(O)O)[C@H](N[*:1])C(=O)[*:2]].D.E.E.S.[am]}$$$$V2.0), the Kd in assay [1] was 2100 ± 80 nM; in assay [3] it was at least 100000 nM; in assay [4], 6800 ± 500 nM.
`C[C@@H](OP(=O)(O)O)[C@H](NC(=O)[C@H](COP(=O)(O)O)NC(=O)[C@H](CCC(=O)O)NC(=O)[C@H](CC(=O)O)NC(=O)[C@@H](N)Cc1ccc(O)cc1)C(=O)N[C@@H](CC(=O)O)C(=O)N[C@@H](CCC(=O)O)C(=O)N[C@@H](CCC(=O)O)C(=O)N[C@@H](CO)C(N)=O` [YDEpSpTDEES] (HELM PEPTIDE1{Y.D.E.[O=C([C@H](COP(=O)(O)O)N[*:1])[*:2]].[C[C@@H](OP(=O)(O)O)[C@H](N[*:1])C(=O)[*:2]].D.E.E.S.[am]}$$$$V2.0): the dissociation constant (Kd) is 250 ± 20 nM in assay [1], at least 100000 nM in assay [3] and 1900 ± 60 nM in assay [4].
Regarding `C[C@@H](OP(=O)(O)O)[C@H](NC(=O)[C@H](COP(=O)(O)O)NC(=O)[C@H](CCC(=O)O)NC(=O)[C@H](CC(=O)O)NC(=O)[C@@H](N)Cc1ccc(O)cc1)C(=O)N[C@@H](CC(=O)O)C(=O)N[C@@H](CCC(=O)O)C(=O)N[C@@H](CCC(=O)O)C(=O)N[C@@H](COP(=O)(O)O)C(N)=O` [YDEpSpTDEEpS] (H-YDE[pS][pT]DEE[pS]-NH2), the Kd in assay [1] is 140 ± 10 nM; in assay [3], at least 100000 nM; in assay [4], 1300 ± 50 nM.
